From patent publication US20260234630A1, “Methods for Treating Multiple Myeloma” (Celgene Corporation, priority 2022, published 2026)

Tests used:
Format in all cases: cell-based
Ikaros, Aiolos and ZFP91 = assay: Western blot of cereblon substrates in MM cells
Description: FIG. 1A-1F. […] (1A) Volcano plot of protein expression changes determined by mass spectrometry in H929 cells at 24 hr of treatment with CC-220 (0.1 μM) or DMSO control. X axis, Log2fold change (FC); Y axis, significance,-log 10 [p-value]. […] (1B) Volcano plot of gene expression changes determined by Affymetrix microarray in H929 cells treated with POM (1 μM) or DMSO for 24 hr. X axis, Log2fold change (FC); Y axis, significance,-log 10 [p-value], n=2 technical replicates). […] (1C) Western blot analysis protein expression of UHRF1, Ikaros, Aiolos and ZFP91 in H929 cells treated with 1 μM POM for indicated time. (1D) qRT-PCR analysis of UHRF1 gene expression levels in cells as in (1C). Error bars represent the SEM from duplicate measurements. (1E) Western blot analysis protein expression of UHRF1 and indicated proteins in MM cells treated with DMSO (−) or 1 μM POM (+) for 3 days. GAPDH serves as a loading control. (1F) Thymidine incorporation of various MM cell lines treated with indicated dose of POM for 3 days. Error bars represent the SEM from technical replicates.
FIG. 2A-2E. […] (2A) Western blot analysis protein expression of UHRF1, Ikaros, Aiolos, ZFP91 and Cereblon expression in control [shLuciferase (shLuc)] and cereblon knockdown (shCRBN) H929 cells treated with DMSO and 1 μM POM for 3 days. GAPDH, loading control. Arrow head, UHRF1. (2B) qRT-PCR analysis of UHRF1 gene expression levels in cells as in (2A). Data was normalized to ACTB. Error bars represent the SEM of technical duplicates. *** P<0.001 (Two-tailed unpaired Student's t-test). (2C) Western blot analysis protein expression of UHRF1, Ikaros and Aiolos in stably transduced H929 cells after Dox induction (0, 10, 50 or 100 ng/ml) for 3 days of non-target shRNA (shNT) or shRNAs targeting Ikaros (shIKZF1) or Aiolos (shIKZF3). (2D) qRT-PCR analysis of UHRF1 gene expression levels in cells as in (2C). Shown are cells induced with Dox (50 ng/ml) for 3 days. Data was normalized to GAPDH. Error bars represent the SEM of technical duplicates. *P<0.05, ** P<0.01, *** P<0.001, **** P<0.0001 (Two-tailed unpaired Student's t-test). […] ChIP with control rabbit IgG (IgG) serves as a negative control. Error bars represent the SEM of technical triplicates. * P<0.05, ** P<0.01, **** P<0.0001 (Two-tailed unpaired Student's t-test).
Cells were lysed with cell lysis buffer (50 mM TrisHCl pH7.4, 250 mM NaCl, 0.5% Triton X100, 10% glycerol) supplemented with protease inhibitor cocktail. Cell lysates were subjected to sonication to breakdown nuclei and reduce viscosity caused by released genomic DNA. The protein concentration was measured by a Bradford Protein Assay (Bio-Rad). […] Proteins of interested were detected incubation with primary antibodies listed below at 4° C. overnight. […]

UHRF1 = assay: Immunocytochemistry assay of UHRF1 in H929 cells; details: 48 hours after 1 μM POM
Description: FIG. 6A-6D. […] (6A) Immunocytochemistry assay of UHRF1 in H929 cells treated with DMSO or 1 μM POM for 48 hrs. (6B) qRT-PCR analysis of UHRF1 gene expression levels in indicated MM cells treated with indicated doses of POM for 3 days. Data was normalized to ACTB. Error bars represent the SEM from duplicate measurements. * P<0.05, ** P<0.01, *** P<0.001, **** P<0.0001 (Two-tailed Student's t-test). (6C) Western blot analysis protein expression of UHRF1, Ikaros, Aiolos, ZFP91 and Celebron in H929 cells treated with 1 μM POM or 0.1 μM CC-220 for 3 days. DMSO, vehicle control. (6D) Western blot analysis protein expression of UHRF1, Ikaros, Aiolos, ZFP91 and Celebron in H929 or RPMI 8226 cells treated with 1 μM POM, 0.1 μM CC-220 or 0.01 μM CC-480 for 3 days. DMSO, vehicle control.

H929 cells = assay: Gene expression changes by Affymetrix microarray in H929 cells; details: POM 1 μM, 24 hour
Description: FIG. 1A-1F. Down regulation of UHRF1 transcription by IMiDs correlates with drug sensitivity of multiple myeloma. (1A) Volcano plot of protein expression changes determined by mass spectrometry in H929 cells at 24 hr of treatment with CC-220 (0.1 μM) or DMSO control. X axis, Log2fold change (FC); Y axis, significance,-log 10 [p-value]. […] (1B) Volcano plot of gene expression changes determined by Affymetrix microarray in H929 cells treated with POM (1 μM) or DMSO for 24 hr. X axis, Log2fold change (FC); Y axis, significance,-log 10 [p-value], n=2 technical replicates). […] (1C) Western blot analysis protein expression of UHRF1, Ikaros, Aiolos and ZFP91 in H929 cells treated with 1 μM POM for indicated time. (1D) qRT-PCR analysis of UHRF1 gene expression levels in cells as in (1C). Error bars represent the SEM from duplicate measurements. (1E) Western blot analysis protein expression of UHRF1 and indicated proteins in MM cells treated with DMSO (−) or 1 μM POM (+) for 3 days. GAPDH serves as a loading control. (1F) Thymidine incorporation of various MM cell lines treated with indicated dose of POM for 3 days. Error bars represent the SEM from technical replicates.
Given that UHRF1 has been reported to be oncogenic in other cancer types, including MM (Gu et al., 2020, BMC Biol, 18:33), the functions of UHRF1 in MM and the mechanisms underlying its gene regulation in response to immunomodulator drugs that binds to cereblon was explored.

In the case of `Nc1cccc2c1C(=O)N(C1CCC(=O)NC1=O)C2=O` (centres unmarked) [POM, pomalidomide], the “time to degradation of Ikaros, Aiolos and ZFP91 proteins” value (Ikaros, Aiolos and ZFP91; H929 cells, POM 1 μM, time course) is reported as no more than 3 h, the “cereblon substrates (Ikaros, Aiolos, ZFP91) protein” value (Ikaros, Aiolos and ZFP91; MC/CAR and RPMI 8226 cells, 1 μM POM, 3 days) is reported as “degraded” and the “Ikaros, Aiolos and ZFP91 expression level” value (Ikaros, Aiolos and ZFP91; sensitive cell lines H929, MM1.S, DF15 and U266, 1 μM POM, 72 hours) is reported as “downregulated”. For the same compound, the “degradation of the substrates by POM under cereblon knockdown” value (Ikaros, Aiolos and ZFP91; shCRBN vs shLuc H929 cells, 1 μM POM, 3 days) was “rescued”, the “UHRF1 protein by immunocytochemistry” value (UHRF1) was “nearly undetectable” and the “UHRF1 gene expression (microarray)” value (H929 cells) was “one of the most significantly downregulated genes”. For the same compound, the “expression of interferon response genes IFIT1 and IFIT3” value (H929 cells) was “drastic induction” and the “gene expression of cell cycle regulators E2F1, MYB and CDC45” value (H929 cells) was “most significantly downregulated genes”.
